{"source": "patent US20180153826A1", "about": "“MATERIALS AND METHODS FOR THE TREATMENT OF CYSTIC FIBROSIS” (UNIVERSITY OF FLORIDA RESEARCH FOUNDATION, INC., priority 2015, published 2018)", "test_system": "cAMP-dependent HCO3^− secretion", "assay": "Cyclic nucleotide (cAMP)-dependent HCO3^− secretion, lumen Cl^−/SCFA-free", "design": "species or system rat", "method": "Stripped mucosal sheets were mounted into Ussing chambers (window area=0.3-0.5 cm^2, Physiologic Instruments, San Diego, Calif.). The mucosal side of tissue was bathed with an unbuffered HCO3^--free Cl^- Ringer solution (see Table 2 for detailed composition) circulated by a gas lift with 100% O2 while the serosal side was bathed with buffered Cl^- Ringer solution (pH 7.4) that contained 25 mM HCO3^- and gassed with 5% CO2/95% O2. Each side contained 3-5 ml of solution and the temperature of the solution was adjusted to and maintained at 37° C. by heated water-jacketed reservoirs. Experiments were performed under short-circuit conditions (Voltage-Current Clamp, VCC MC8; Physiologic Instruments, San Diego, Calif.) to maintain the transepithelial potentials at 0 mV, except for brief interruption at 20-second intervals for recording of open-circuit potential (VT, mV). Two types of approaches were used in the measurement of colonic HCO3^- secretion, namely, measurement of lumen pH or pH stat titration of net alkalinization by colonic mucosa. […] Radiometer Analytical, Villeurbanne, France). The amount of the acid delivered per unit time per surface area was used to quantitate HCO3^- secretion by the mucosa. Measurements were recorded continuously and mean values for consecutive 5 or 10 min periods were averaged. […] The short-circuit current (Isc) was measured in microamperes (μA) and converted into μEq/hr/cm^2. Tissue resistance (R, Ω cm^2) was calculated from Ohm's law. Colon segments were prepared and treated as in the secretagogue-induced HCO3^- secretion experiments except that they were bathed luminally with HCO3^--free Ringer solution that contained no isobutyrate and no Cl^-. Cyclic nucleotide-dependent HCO3^- secretion was calculated as […] (the difference between JHCO3 after minus JHCO3 before the addition of forskolin). When inhibitor was used, it was added at 30 min before […] or forskolin."}
{"molecule": "COc1cccc([C@@H](C)NCCCc2ccccc2Cl)c1.Cl", "note": "[R568, 2-Chloro-N-[(1R)-1-(3-methoxyphenyl)ethyl]-benzenepropanamine hydrochloride]", "values": [{"measurement": "effect on FSK-induced HCO3^− secretion", "setting": "10 μM serosa after forskolin, lumen Cl^−/SCFA-free", "value": "almost completely reversed"}, {"measurement": "Isc response in the absence of serosal HCO3^−", "setting": "no serosal HCO3^− (data not shown)", "value": "failed to stimulate or to inhibit"}, {"measurement": "effect on forskolin-stimulated Isc", "setting": "subsequent addition after forskolin, lumen Cl^−-free", "value": "inhibited"}]}
